Experimental data published in the METLIN SMRT retention time set (Domingo-Almenara et al. 2019).

Assay: gradient 5% acetonitrile 3 min, to 50% in 2 min, to 85% in 15 min, held 3 min, 100 µL/min
Conditions: column: Zorbax Extend-C18 2.1 x 50 mm; eluents: water / acetonitrile, 0.1% formic acid
Procedure, shortened: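 Values are retention times taken from adduct peaks that software picked and an analyst inspected. The pure standards were run as mixtures of ~100 molecules on HPLC linked to a quadrupole time-of-flight mass spectrometer, in positive and negative ionization mode. A Zorbax Extend-C18 column (2.1 × 50 mm, 1.8 μm) was used at 100 μL/min with water and acetonitrile, each including 0.1% formic acid.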

| RP-LC retention time | SMILES |
| --- | --- |
| 738 s | Cc1ccc(NC(=O)CSc2nccc(N3CCCCCC3)n2)cc1F |
| 732 s | Cn1ncc(N2CCCC(C(=O)N3CCc4ccccc4C3)C2)cc1=O (stereo not given) |
| 578 s | CC1(C(=O)NCCCN2CCc3ccccc3C2)CCCCC(=O)N1 (stereo not given) |
| 1010 s | CC(C)n1c(=O)sc2cc(S(=O)(=O)N3CCC(C(=O)Nc4cccc(F)c4)CC3)ccc21 |
| 680 s | O=C(CSc1ccc(N2CCCC(C(=O)NC3CC3)C2)nn1)Nc1cc(F)cc(F)c1 (stereo not given) |
| 615 s | Cc1cc(N2CCN(C)CC2)nc(N2CCN(S(=O)(=O)c3ccc(-c4ccccc4)cc3)CC2)n1 |
| 569 s | CN1CCCn2nc(C3CCN(C(=O)CSc4ccncc4)CC3)cc2C1=O |
| 642 s | CC(=O)N1CCN(Cc2ccc([C@H](C)Nc3nccc(N4C(=O)OC[C@@H]4C(C)C)n3)cc2)CC1 |
| 914 s | O=C(Nc1ccc(Br)cc1)c1ccc(S(=O)(=O)N2CCCC2)cc1 |
| 1080 s | CCOC(=O)c1cc(S(=O)(=O)N2CCCC2C(=O)Nc2ccc(Br)c(C)c2)cn1C (stereo not given) |
| 650 s | O=S(=O)(c1cccnc1)N1CCCC(Cn2c(C3CC3)nc3cccnc32)C1 (stereo not given) |
| 743 s | CCc1noc(NC(C)=O)c1-c1ccc(C)c(S(=O)(=O)N2CCOCC2)c1 |
| 715 s | Cc1cc(C(=O)N2CCC(c3nc4ccccc4s3)CC2)n(C)n1 |
| 640 s | CCCc1ccc(S(=O)(=O)N2CCC(n3cnc4c(C)cccc4c3=O)CC2)cc1 |
| 618 s | COc1ccc(C2(C(=O)N3CCCC(CN4CCCC4)CC3)CC2)cc1 (stereo not given) |
| 621 s | O=C(C1CC1)N1CCC(c2noc(-c3cnccn3)n2)C1 (stereo not given) |

| RP-LC retention time | SMILES |
| --- | --- |
| 708 s | CCn1cc(CCN2CCN(S(=O)(=O)c3ccc(C)c(Cl)c3)CC2)c2cccnc21 |
| 629 s | O=C(C1CCN(c2cncnc2N2CCOCC2)CC1)N1CCN(c2ccccc2)CC1 |
| 717 s | O=C(c1ccccn1)N1CCN(C(=O)c2nnn3c2COC(c2ccccc2)C3)CC1 (stereo not given) |
| 690 s | CN1CCCn2cc(S(=O)(=O)Nc3ccc(F)c(F)c3)cc2C1=O |
| 753 s | CCc1ccc(S(=O)(=O)N2CCC3(CC2)NCCN=C3NCc2ccc(F)cc2)cc1 |
| 926 s | CN(C)S(=O)(=O)c1ccc(-c2nnc(C(=O)NC3CCCCCC3)o2)cc1 |
| 761 s | CC(=O)N1CCC(C2CCN(S(=O)(=O)c3ccc(Cl)s3)C2)CC1 (stereo not given) |
| 793 s | Cc1cccc(N2C=C(C(=O)N3CCOCC3)S(=O)(=O)c3ccc(F)cc32)c1 |
| 681 s | CNC(=O)N1CCCN(C2=NS(=O)(=O)C(c3ccc(F)cc3)=C2C)CC1 |
| 770 s | Cc1cc(C2CCCN2C(=O)c2ccc(C)s2)no1 (stereo not given) |
| 886 s | C=Cc1ccc(Cn2cccc(S(=O)(=O)N3CCCC3)c2=O)cc1 |
| 846 s | CC1Oc2ccc(S(=O)(=O)N3CCC(C(=O)NCc4ccc(Cl)cc4)CC3)cc2NC1=O (stereo not given) |
| 766 s | O=C(Cc1ccc(NS(=O)(=O)c2ccc3c(c2)CCCC3)cc1)NC1CC1 |
| 947 s | Cc1ccc(NC(=O)N2CCCC(CCC(=O)NCCC3=CCCCC3)C2)cc1 (stereo not given) |
| 796 s | Cc1ccc(C2Cn3cnc(C(=O)N4CCC(C(=O)NCc5ccccc5)CC4)c3CO2)cc1 (stereo not given) |

The next lines start with the molecule.

| SMILES | RP-LC retention time |
| --- | --- |
| Cc1ccc(NC(=O)N(C)CCc2noc(COc3ccccc3F)n2)c(C)c1 | 922 s |
| CCOC(=O)Cn1c(=O)c2c(nc3n2CCCCN3c2ccc(OCC)cc2)n(C)c1=O | 944 s |
| CCc1cc(=O)n(CC(=O)N(C)c2ccccc2)c(N2CCOCC2)n1 | 674 s |
| O=C(c1ccoc1)N1CCc2c(c(CO)nn2Cc2ccccc2)C1 | 659 s |
| Fc1ccc(-c2noc(-c3nnc(NCCN4CCOCC4)c4ccccc34)n2)cc1 | 701 s |
| CCOc1cc(CNc2ccc3[nH]c(=O)[nH]c3c2)cc(Br)c1OC | 677 s |
| CCNC(=O)N(CCCOC)CC(=O)N1CCc2sccc2C1COc1ccc(Cl)c(C)c1 (stereo not given) | 965 s |
| CCOC(=O)Cc1csc(NC(=O)CSc2nc(C)cc(C)n2)n1 | 728 s |
| Cc1cc2nc(C(=O)NC(C)C)c(=O)n(C)c2cc1C | 747 s |
| CCOc1nc2ccccc2nc1N1CCCC(C(=O)Nc2ccc(F)cc2)C1 (stereo not given) | 1190 s |
| COc1ccc(-c2noc(C3(NC(=O)c4ccc(F)c(Cl)c4)CCCCC3)n2)cc1 | 685 s |
| Cc1nc(-c2noc(-c3ccccc3)n2)cn1CC(=O)NCc1cccs1 | 789 s |
| CCn1cc(C)c(C(=O)O)c1CC(=O)NCCN1CCCc2ccccc21 | 711 s |
| COC(=O)c1cccc(C(=O)Nc2ccccc2C)n1 | 869 s |
| CC1(C(=O)NCc2ccccc2)CCCN(C(=O)Nc2ccccc2Br)C1 (stereo not given) | 947 s |
| Cc1ccccc1NC(=O)Cn1nc2c(Oc3cccc(F)c3)nccn2c1=O | 846 s |
| COc1ccc(-c2noc(-c3ccc(N4CCN(Cc5ccc6c(c5)OCO6)CC4)nc3)n2)cc1 | 785 s |
| Cc1nnc(-c2ccc3ccn(CC(=O)NC(C)(C)C)c3c2)o1 | 718 s |
| CCOc1cccc(CNC(=O)C2CCc3nc(N4CCCCC4)ncc3C2)c1 (stereo not given) | 777 s |
| O=C(NCCn1c(=O)n(Cc2ccccc2)c2cccnc21)c1ccsc1 | 750 s |

| SMILES | RP-LC retention time |
| --- | --- |
| Cc1ccccc1NC(=O)c1cn(CC2CCCO2)cc2c(=O)n(-c3ccccc3)nc1-2 (stereo not given) | 943 s |
| Cc1cc(=O)n(CC(=O)Nc2ccc(Br)cc2)c(N2CCc3ccccc3C2)n1 | 885 s |
| Cc1cccc(C)c1NC(=O)Cn1cnc2c(sc3nc(-c4ccccc4)ccc32)c1=O | 972 s |
| CCn1c(SC)nnc1-c1nn(C)c2c1CN(C(=O)c1ccc(F)c(F)c1)CC2 | 804 s |
| Cc1ccc(C(=O)NC2CCN(c3cc(-c4cccs4)[nH]n3)C2)cc1C (stereo not given) | 726 s |
| CCc1nnc(-c2ccc(NC(=O)COc3ccccc3F)cc2)o1 | 772 s |
| Cc1cccc(C(=O)Nc2nc(-c3ccc4c(c3)N(C)C(=O)CO4)cs2)c1 | 985 s |
| CC1CCN(c2ccc(CNc3nc4ccncc4n(C)c3=O)cc2)CC1 | 559 s |
| CCC(C)Oc1nc2c(c(=O)n(C)c(=O)n2C)n1C (stereo not given) | 865 s |
| O=C(Cn1c(=O)c2cc(C3CC3)nn2c2ncccc21)N1CCCc2ccccc21 | 832 s |
| CCc1nccn1Cc1noc(-c2ccc(F)cc2)n1 | 615 s |
| Cc1nc2cc(-c3noc(-c4cc(F)ccc4Cl)n3)ccc2o1 | 1150 s |
| O=C(Cn1nc(N2CCSCC2)c2ccccc2c1=O)Nc1ccccc1F | 928 s |
| O=C(COc1ccc(F)cc1)NCC(=O)N1CCCc2ccccc21 | 850 s |
| O=C1CC(c2cccc(Cl)c2)Cc2c1cnn2-c1nc2ccccc2[nH]1 (stereo not given) | 1030 s |
| CC(C)(C)CC(=O)NCCc1noc(C2CC2)n1 | 713 s |
| Cn1c(=O)n(C)c2cc(N3CCCCC3)c(NC(=O)c3ccco3)cc21 | 872 s |
| CCCCN1C(=O)C(C)(C(=O)Nc2cc(C)ccc2C)Oc2cccnc21 (stereo not given) | 1110 s |
| CCOc1ccccc1NC(=O)CC1Sc2ccccc2NC1=O (stereo not given) | 829 s |
| Cc1ccc(Cn2c(=O)c(N3CCN(C(=O)NC(C)C)CC3)nc3ccccc32)cc1 | 981 s |

| SMILES | RP-LC retention time |
| --- | --- |
| O=c1c2cc(-c3ccc(F)cc3)nn2ccn1Cc1noc(CN2CCCCCCC2)n1 | 719 s |
| CCn1c(=O)c(C(=O)NCCCc2ccccc2)nc2cccnc21 | 586 s |
| Cc1cccn2cc(C(=O)NCc3cccc(Cl)c3)nc12 | 777 s |
| COc1cccc(CNC(=O)Nc2cc3c(cc2N2CCOCC2)n(C)c(=O)n3C)c1 | 723 s |
| Cc1cccn2cc(C(=O)NCc3cc(F)ccc3F)nc12 | 655 s |
| CCOC(=O)c1nc(N(Cc2cccs2)C2CCCC2)c2ccccc2n1 | 1120 s |
| O=C(NCCn1cnc2cc(C(=O)N3CCCC3)ccc21)NCc1ccco1 | 985 s |
| COC(=O)c1cn(C(=O)c2ccccc2)c2ccccc12 | 1090 s |
| O=C(CCCS(=O)(=O)c1ccccc1)Nc1nnc(-c2ccsc2)o1 | 674 s |
| CCc1noc(NC(C)=O)c1-c1ccc(OC)c(S(=O)(=O)Nc2cccc(F)c2)c1 | 794 s |
| Cn1c(=O)n(C)c2cc(N3CCCCC3)c(NC(=O)COc3ccc(Cl)cc3)cc21 | 1040 s |
| Cc1oc(-c2[nH]ncc2C(=O)N(C)C)cc1S(=O)(=O)Nc1ccccc1 | 609 s |
| COc1ccc(NC(=O)N2CCC3(C2)C(=O)Nc2ccccc23)c(OC)c1 (stereo not given) | 678 s |
| COc1cccc(-c2cc(CNC(=O)c3sc(-n4cccc4)nc3C)no2)c1 | 934 s |
| Cc1noc(C)c1CC(=O)NCC12CCC=C1N(C)C(=O)CC2 (stereo not given) | 638 s |
| Cc1ccc(Cl)cc1NC(=O)CSc1nc(N2CCCCC2)nc2ccccc12 | 849 s |
| Cc1ccc(-c2noc(Cc3nnc(-c4cc(F)cc(F)c4)o3)n2)cc1C | 1170 s |
| Cc1cccc(-c2nc(CNC(=O)C(C)(C)C)no2)c1 | 826 s |
| CCOC(=O)c1nc(NCc2ccccc2Cl)c2c(CC)noc2n1 | 1010 s |
